Read-outs that look alike come from different tables or passages of the source.
Key:
[1] = Cell viability: resazurin assay; type: cell-based, human; conditions: human, HEp2 cells
Experimental: Cell Viability: Resazurin Assay
HEp2 cells were seeded in 384-well plates (10^3/well/50 μL; BD Falcon Ref 353962) in FBS DMEM (5%, containing 2 mM L-glutamine and 1 mM sodium pyruvate) one day before experimentation. Serum-free DMEM (50 μL) was added to test wells while for control wells the media was removed and sterile water (100 μL) was added. Test compounds (0.5 μL DMSO solution) were added to give a final DMSO concentration of 0.5%. Hep2 cells were incubated with each test compound for 5 days (37° C./5% CO2 in 5% FBS) and then resazurin stock solution (5 μL; 0.03%) was added to each well and the plate incubated for a further 6 hr (37° C./5% CO2). The fluorescence of each well at 545 nm (excitation) and 590 nm (emission) was determined using a multi-scanner (Clariostar: BMG Labtech). The percentage loss of cell viability was calculated for each well relative to vehicle (0.5% DMSO) treatment.
Any apparent increase in cell viability associated with test compound treatment relative to vehicle is consequently tabulated as a negative percentage. Where appropriate, a CC50 value was calculated from the concentration-response curve generated from the concentration-response curve for each test compound.

RSV B Washington strain = experiment: Assessment of RSV induced CPE in HEp2 cells (RSV B Washington strain); type: cell-based; conditions: human respiratory syncytial virus; for IC50: HEp-2, 144 h
Experimental: (§1) Assessment of RSV Induced CPE in HEp2 Cells
(§2) HEp2 cells were seeded (10^3/well/50 μL) in 384-well plates (Catalogue number 353962, BD Falcon, Oxford, UK) in […] containing 2 mM L-glutamine and 1 mM sodium pyruvate one day before infection. RSV A2 strain (#0709161v, NCPV, Public Health England, Wiltshire) or RSV B Washington strain (VR-1580, ATCC, Manassas, Va. 20108) virus solutions were prepared in serum free-DMEM with 2 mM L-glutamine and 1 mM sodium pyruvate, and then added (50 μL/well) to achieve a final virus concentration of 1 MOI. Simultaneously test compounds (0.5 μL DMSO solution) were added to 100 μL of HEp2 cell culture with virus solution to provide a final DMSO solution of 0.5%. Plates were incubated (37° C./5% CO2) for 5 days for studies using RSV A2 strain or 6 days for those using RSV B strain, and then resazurin sodium salt (5 μL of 0.03% solution; Sigma-Aldrich, Dorset, UK) was added to each well and the plate incubated for a further 6 hr (37° C./5% CO2). The fluorescence of each well [545 nm (excitation)/590 nm (emission)] was determined using a multi-scanner (Clariostar: BMG, Buckinghamshire, UK). The percentage inhibition for each well was calculated and the IC50, IC75 and IC90 values were calculated from the concentration-response curve generated for each test compound.

RSV A2 strain = experiment: Assessment of RSV induced CPE in HEp2 cells (RSV A2 strain); type: cell-based; conditions: human respiratory syncytial virus; for IC50: HEp-2, 120 h; for inhibition at 0.01 µg/mL: Inhibition (%) at 0.01 μg/mL
Experimental: as §1, §2

[2] = HEp-2, read-out: RSV B CPE % Inhibition
[3] = HEp-2, read-out: RSV A2 CPE % Inhibition
[4] = HEp2 cells, 1 MOI, 6 days, read-out: RSV B CPE IC50
[5] = HEp-2, HEp2 cells, Inhibition (%) at 1 μg/mL, read-out: RSV B CPE % Inhibition
[6] = HEp2 cells, 1 MOI, 5 days, read-out: RSV A2 CPE IC50
[7] = HEp-2, HEp2 cells, Inhibition (%) at 0.1 μg/mL, read-out: RSV A2 CPE % Inhibition

Compound	CC50 at 5 days [1] [nM]	IC50 (RSV B Washington strain; read-out: RSV B CPE IC50 (nM)) [nM]	inhibition at 1 µg/mL (RSV B Washington strain; [2]) [%]	IC50 (RSV A2 strain; read-out: RSV A2 CPE IC50 (nM)) [nM]	inhibition at 0.1 µg/mL (RSV A2 strain; [3]) [%]	IC50 (RSV B Washington strain; [4]) [nM]	inhibition at 1 µg/mL (RSV B Washington strain; [5]) [%]	IC50 (RSV A2 strain; [6]) [nM]	inhibition at 0.1 µg/mL (RSV A2 strain; [7]) [%]	inhibition at 0.01 µg/mL (RSV A2 strain; HEp-2, HEp2 cells) [%]	inhibition at 0.1 µg/mL (RSV B Washington strain; HEp-2, HEp2 cells, Inhibition (%) at 0.1 μg/mL) [%]
O=C(Nc1ccccc1)c1cc2c(s1)-c1ccccc1N(C(=O)c1ccc(NC(=O)c3cccnc3N3CC4(CCOCC4)C3)cc1)CC2 [Example 1, 6-(4-(2-(7-oxa-2-azaspiro[3.5]nonan-2-yl)nicotinamido)benzoyl)-N-phenyl-5,6-dihydro-4H-benzo[b]thieno[2,3-d]azepine-2-carboxamide]	> 14900	166	77	0.5	98	–	–	–	–	–	–
N#Cc1ccccc1NC(=O)c1cc2c(s1)-c1ccccc1N(C(=O)c1ccc(NC(=O)c3cccnc3N3CC4(CCOCC4)C3)cc1)CC2 [Example 2, 6-(4-(2-(7-oxa-2-azaspiro[3.5]nonan-2-yl)nicotinamido)benzoyl)-N-(2-cyanophenyl)-5,6-dihydro-4H-benzo[b]thieno[2,3-d]azepine-2-carboxamide]	> 14400	314	69	0.16	91	–	–	–	–	–	–
COc1ccc(C(=O)Nc2ccc(C(=O)N3CCc4cc(C(=O)Nc5ccccc5F)sc4-c4ccccc43)cc2)c(N2CC3(CCOCC3)C2)n1 [Example 3, 6-(4-(6-methoxy-2-(7-oxa-2-azaspiro[3.5]nonan-2-yl)nicotinamido)benzoyl)-N-(2-fluorophenyl)-5,6-dihydro-4H-benzo[b]thieno[2,3-d]azepine-2-carboxamide]	> 13900	–	–	–	–	195	58	1.3	100	–	–
O=C(Nc1ccccc1F)c1cc2c(s1)-c1ccccc1N(C(=O)c1ccc(NC(=O)c3cc(C4CC4)cnc3N3CC4(CCOCC4)C3)cc1)CC2 [Example 4, 6-(4-(5-Cyclopropyl-2-(7-oxa-2-azaspiro[3.5]nonan-2-yl)nicotinamido)benzoyl)-N-(2-fluorophenyl)-5,6-dihydro-4H-benzo[b]thieno[2,3-d]azepine-2-carboxamide]	> 13700	–	–	–	–	49.3	83	2.1	–	100	–
Cc1cnc(N2CC3(CCOCC3)C2)c(C(=O)Nc2ccc(C(=O)N3CCc4cc(C(=O)Nc5c(F)cccc5I)sc4-c4ccccc43)cc2)c1 [Example 6, N-(2-Fluoro-6-iodophenyl)-6-(4-(5-methyl-2-(7-oxa-2-azaspiro[3.5]nonan-2-yl)nicotinamido)benzoyl)-5,6-dihydro-4H-benzo[b]thieno[2,3-d]azepine-2-carboxamide]	> 12100	–	–	–	–	4.2	100	0.13	–	100	–
Cc1cnc(N2CC3(CCOCC3)C2)c(C(=O)Nc2ccc(C(=O)N3CCc4cc(C(=O)Nc5c(F)cccc5C5CC5)sc4-c4ccccc43)cc2)c1 [Example 7, N-(2-Cyclopropyl-6-fluorophenyl)-6-(4-(5-methyl-2-(7-oxa-2-azaspiro[3.5]nonan-2-yl)nicotinamido)benzoyl)-5,6-dihydro-4H-benzo[b]thieno[2,3-d]azepine-2-carboxamide]	> 13500	–	–	–	–	98.6	94	0.15	100	–	–
Cc1cccc(F)c1NC(=O)c1cc2c(s1)-c1ccccc1N(C(=O)c1ccc(NC(=O)c3cc(C4CC4)cnc3N3CC4(CCOCC4)C3)cc1)CC2 [Example 11, 6-(4-(5-Cyclopropyl-2-(7-oxa-2-azaspiro[3,5]nonan-2-yl)nicotinamido)benzoyl)-N-(2-fluoro-6-methylphenyl)-5,6-dihydro-4H-benzo[b]thieno[2,3-d]azepine-2-carboxamide]	> 13500	–	–	–	–	25.9	95	0.28	93	–	–
Cc1cccc(F)c1NC(=O)c1cc2c(s1)-c1ccccc1N(C(=O)c1ccc(NC(=O)c3cc4c(nc3N3CC5(CCOCC5)C3)CCOC4)cc1)CC2 [Example 12, N-(4-(2-((2-Fluoro-6-methylphenyl)carbamoyl)-5,6-dihydro-4H-benzo[b]thieno[2,3-d]azepine-6-carbonyl)phenyl)-2-(7-oxa-2-azaspiro[3.5]nonan-2-yl)-7,8-di hydro-5H-pyrano[4,3-b]pyridine-3-carboxamide]	> 13200	–	–	–	–	1.3	98	0.42	–	100	–
O=C(Nc1c(F)cccc1F)c1cc2c(s1)-c1ccccc1N(C(=O)c1ccc(NC(=O)c3cc4sccc4nc3N3CC4(CCOCC4)C3)cc1)CC2 [Example 13, 6-(4-(5-(7-Oxa-2-azaspiro[3.5]nonan-2-yl)thieno[3,2-b]pyridine-6-carboxamido)benzoyl)-N-(2,6-difluorophenyl)-5,6-dihydro-4H-benzo[b]thieno[2,3-d]azepine-2-carboxamide]	> 13100	–	–	–	–	0.96	100	0.45	–	100	–
CCc1ccccc1NC(=O)c1cc2c(s1)-c1ccccc1N(C(=O)c1ccc(NC(=O)c3cccnc3N3CC4(CCOCC4)C3)cc1)CC2 [Example 17, 6-(4-(2-(7-oxa-2-azaspiro[3.5]nonan-2-yl)nicotinamido)benzoyl)-N-(2-ethylphenyl)-5,6-dihydro-4H-benzo[b]thieno [2,3-d]azepine-2-carboxamide]	> 14300	–	–	–	–	204	77	0.66	100	–	–
C#Cc1ccc(NC(=O)c2cc3c(s2)-c2ccccc2N(C(=O)c2ccc(NC(=O)c4cccnc4N4CC5(CCOCC5)C4)cc2)CC3)cc1 [Example 18, 6-(4-(2-(7-oxa-2-azaspiro[3.5]nonan-2-yl)nicotinamido)benzoyl)-N-(4-ethynylphenyl)-5,6-dihydro-4H-benzo[b] thieno[2,3-d]azepine-2-carboxamide]	> 14400	–	–	–	–	> 1440	18	0.16	75	–	–
O=C(Nc1c(F)cccc1F)c1cc2c(s1)-c1ccccc1N(C(=O)c1ccc(NC(=O)c3cccnc3N3CC4(CCOCC4)C3)cc1)CC2 [Example 19, 6-(4-(2-(7-oxa-2-azaspiro[3.5]nonan-2-yl)nicotinamido)benzoyl)-N-(2,6-difluorophenyl)-5,6-dihydro-4H-benzo[b] thieno[2,3-d]azepine-2-carboxamide]	> 14200	–	–	–	–	28	–	0.14	88	–	100
O=C(Nc1ccc(F)cc1F)c1cc2c(s1)-c1ccccc1N(C(=O)c1ccc(NC(=O)c3cccnc3N3CC4(CCOCC4)C3)cc1)CC2 [Example 20, 6-(4-(2-(7-oxa-2-azaspiro[3.5]nonan-2-yl)nicotinamido)benzoyl)-N-(2,4-difluorophenyl)-5,6-dihydro-4H-benzo[b] thieno[2,3-d]azepine-2-carboxamide]	> 14200	–	–	–	–	129	80	0.36	100	–	–
O=C(Nc1ccc(Cl)cc1F)c1cc2c(s1)-c1ccccc1N(C(=O)c1ccc(NC(=O)c3cccnc3N3CC4(CCOCC4)C3)cc1)CC2 [Example 21, 6-(4-(2-(7-oxa-2-azaspiro[3.5]nonan-2-yl)nicotinamido)benzoyl)-N-(4-chloro-2-fluorophenyl)-5,6-dihydro-4H-benzo[b]thieno[2,3-d]azepine-2-carboxamide]	> 13800	–	–	–	–	100	73	1.3	100	–	–

Reference: patent US10189863B2, “5,6-dihydro-4H-benzo[b]thieno-[2,3-d]azepine derivatives” (PULMOCIDE LIMITED, priority 2014, dated 2019)
